For test [1], the system named is Mycobacterium tuberculosis S7. Nature of the test: microbe, parasite or virus in culture. The settings on record: S7, 120 h, read-out: MIC99 (S7) µM.
The test system of test [2] is Mycobacterium tuberculosis S6. Nature of the test: microbe, parasite or virus in culture. Conditions: S6, 120 h, read-out: MIC99 (S6) µM.

These results are taken from article doi:10.1101/2023.06.20.545697v1 (biorxiv, 2023).

Converted amounts (≈) assume the structure as drawn.

Consider `CC(N)c1ncnn1C` (stereo not shown) [SF1], for which the MIC99 in test [1] was 250 µM (≈ 31.5 µg/mL).
The same measure, in the same setting: as for `NCCSc1ncn[nH]1` [SF3], the figure is 250 µM (≈ 36.1 µg/mL).
As for `CC(C)C(N)c1ncnn1C` (stereo not shown) [SF2], the MIC99 in test [2] and in test [1] was 125 µM (≈ 19.3 µg/mL) throughout.
